In the first experiment the test system is TCF4/β-catenin transcription (TOPFlash) in SW480 cells. Description: Reporter gene assay (TOPFlash luciferase). In kind it is cell-based. The following applies: Homo sapiens, SW480. The procedure: SW480 cells were transfected with the usage of Superfect™ transfect reagent (Qiagen, 301307). Cells were trypsinized briefly 1 day before transfection and plated on 6 well plate (5×10^5 cells/well) so that they were 50-80% confluent on the day of transfection.
Four microgram (TOPFlash) and one microgram (pRL-null) of DNAs were diluted in 150 μl of serum-free medium, and 30 μl of Superfect™ transfect reagent was added. The DNA-Superfect mixture was incubated at room temperature for 15 min, and then, 1 ml of 10% FBS DMEM was added to this complex for an additional 3 hours of incubation. While complexes were forming, cells were washed with PBS twice without antibiotics.
The DNA-Superfect™ transfect reagent complexes were applied to the cells before incubating at 37° C. at 5% CO2 for 3 hours. After incubation, recovery medium with 10% FBS was added to bring the final volume to 1.18 ml. After 3 hours incubation, the cells were harvested and reseeded to 96 well plate (3×10^4 cells/well). After overnight incubation at 37° C. at 5% CO2, the cells were treated with Compound A for 24 hours. Finally, the activity was checked by means of luciferase assay (Promega, E1960).
In general, IC50 refers to the concentration that gives 50% inhibition. In the case of `C=CCN1CC(=O)N2[C@@H](Cc3ccc(OC(=O)NCCN(C)C)cc3)C(=O)N(Cc3ccc(F)cc3F)C[C@@H]2N1C(=O)NCc1ccccc1` [Compound 173], half-maximal inhibition (IC50) required 1.8 ± 0.2 µM.

Still in this experiment, the particulars now being: Homo sapiens, SW480, Table 4; Reporter gene assay as described in Example 6; read-out: IC50.
For `C=CCN1CC(=O)N2[C@@H](Cc3ccc(O)cc3)C(=O)N(Cc3cccc(N4CCCC4=O)c3)C[C@@H]2N1C(=O)NCc1ccccc1` [Compound 152], the half-maximal inhibitory concentration (IC50) was determined as 1.2 ± 0.3 µM.
Same read-out and setting: then `CN1CC(=O)N2C(CN(Cc3cccc(C(F)(F)F)c3)C(=O)[C@@H]2Cc2ccc(O)cc2)N1C(=O)NCc1ccccc1` (stereo partly drawn) [Compound 15], with 4.2 µM; and `C=CCN1CC(=O)N2[C@@H](Cc3ccc(O)cc3)C(=O)N(Cc3ccc(Cl)c(Cl)c3)C[C@@H]2N1C(=O)NCc1ccccc1` [Compound 180], with 1.3 ± 0.1 µM; and `CN1CC(=O)N2[C@@H](Cc3ccc(O)cc3)C(=O)N(Cc3cccc4ccccc34)C[C@@H]2N1C(=O)Nc1ccc(C(F)(F)F)cc1` [Compound 4], with 11.8 µM.
Still for that read-out and setting: then `CN1CC(=O)N2[C@@H](Cc3ccc(O)cc3)C(=O)N(Cc3cccc4nccnc34)C[C@@H]2N1C(=O)NCc1ccccc1` [Compound 34], with 4.4 µM.
`C=CCN1CC(=O)N2[C@@H](Cc3ccc(O)cc3)C(=O)N([C@@H](C)c3ccc(Cl)c4cccnc34)C[C@@H]2N1C(=O)NCc1ccccc1` [Compound 185]: the IC50 was 23.4 ± 1.9 µM.
On to `CN1CC(=O)N2C(CN(Cc3ccc(Cl)cc3Cl)C(=O)[C@@H]2Cc2ccc(O)cc2)N1C(=O)NCc1ccccc1` (stereo partly drawn) [Compound 19], for which the IC50 came to 11.5 µM.
For the compound `CN1CC(=O)N2[C@@H](Cc3ccc(O)cc3)C(=O)N(Cc3ccc4cccnc4c3)C[C@@H]2N1C(=O)NCc1ccccc1` [Compound 95], the IC50 was found to be 13.3 ± 1.4 µM.
The same measure, in the same setting: for `CCCN1CC(=O)N2[C@@H](Cc3ccc(O)cc3)C(=O)N(Cc3ccc(F)cc3F)C[C@@H]2N1C(=O)NCc1ccccc1` [Compound 157] the value was 4.2 ± 0.1 µM; for `C#CCN1CC(=O)N2[C@@H](Cc3ccc(O)cc3)C(=O)N(Cc3cccc4c3cnn4CCN3CCOCC3)C[C@@H]2N1C(=O)NCc1ccccc1` [Compound 112], 4.1 ± 0.8 µM.
On to `CC(C)N(C)c1cc(CN2C[C@H]3N(C(=O)CN(C)N3C(=O)NCc3ccccc3)[C@@H](Cc3ccc(O)cc3)C2=O)ccc1Cl` [Compound 54], for which the IC50 was 23.6 ± 5.6 µM.
Still for that read-out and setting: then `C[C@H](c1ccc(Cl)c2cccnc12)N1CC2N(C(=O)CN(C)N2C(=O)NCc2ccccc2)[C@@H](Cc2ccc(O)cc2)C1=O` (stereo partly drawn) [Compound 198], with 5.8 ± 0.3 µM; and `CCCN1CC(=O)N2[C@@H](Cc3ccc(O)cc3)C(=O)N(Cc3cccc4cccnc34)C[C@@H]2N1C(=O)NCc1ccccc1` [Compound 122], with 2.1 ± 0.4 µM; and `CN1CC(=O)N2C(CN(Cc3ccccc3F)C(=O)[C@@H]2Cc2ccc(O)cc2)N1C(=O)NCc1ccccc1` (stereo partly drawn) [Compound 8], with 14.5 µM.
`CN(C)c1cc(F)ccc1CN1C[C@H]2N(C(=O)CN(C)N2C(=O)NCc2ccccc2)[C@@H](Cc2ccc(O)cc2)C1=O` [Compound 50]: the IC50 turned out to be 1.3 µM.
On the same count and under the same terms, for `C=CCN1CC(=O)N2[C@@H](Cc3ccc(O)cc3)C(=O)N(Cc3ccc(F)c(F)c3)C[C@@H]2N1C(=O)NCc1ccccc1` [Compound 178] the value was 1.2 ± 0.1 µM.
The same measure, in the same setting: then `CCN(C)c1cccc(CN2C[C@H]3N(C(=O)CN(C)N3C(=O)NCc3ccccc3)[C@@H](Cc3ccc(O)cc3)C2=O)c1` [Compound 46], with 4.4 µM.
Still for that read-out and setting: for `C=CCN1CC(=O)N2[C@@H](Cc3ccc(O)cc3)C(=O)N(Cc3cccc(NC)c3)C[C@@H]2N1C(=O)NCc1ccccc1` [Compound 193] the value was 2.5 ± 0.5 µM; for `O=C1[C@H](Cc2ccc(O)cc2)N2C(=O)CON(C(=O)NCc3ccccc3)[C@H]2CN1Cc1cccc2cccnc12` [Compound 119], 8.8 ± 1.3 µM; for `C=CCN1CC(=O)N2[C@@H](Cc3ccc(NC=O)cc3)C(=O)N(Cc3ccc(F)cc3F)C[C@@H]2N1C(=O)NCc1ccccc1` [Compound 159], 2.7 ± 0.2 µM.
For the compound `C=CCN1CC(=O)N2[C@@H](Cc3ccc(O)cc3)C(=O)N(Cc3ccccc3)C[C@@H]2N1C(=O)NCc1ccc(Cl)c(Cl)c1` [Compound 207], the IC50 stood at 1.5 ± 0.1 µM.
For the compound `CN1CC(=O)N2[C@@H](Cc3ccc(O)cc3)C(=O)N(Cc3ccc(Cl)c(Cl)c3)C[C@@H]2N1C(=O)NCc1ccccc1` [Compound 29], the IC50 was determined as 3.8 µM.
Same read-out and setting: then `CN1CC(=O)N2[C@@H](Cc3ccc(O)cc3)C(=O)N(Cc3cccc4ccccc34)C[C@@H]2N1C(=S)NCc1ccccc1` [Compound 35], with 11.4 µM; and `CN1CC(=O)N2C(CN(Cc3cccc(Cl)c3)C(=O)[C@@H]2Cc2ccc(O)cc2)N1C(=O)NCc1ccccc1` (stereo partly drawn) [Compound 18], with 3.3 µM.
Still for that read-out and setting: then `C=CCN1CC(=O)N2[C@@H](Cc3ccc(OP(=O)(O)O)cc3)C(=O)N(Cc3cccc4scnc34)C[C@@H]2N1C(=O)NCc1ccccc1` [Compound 197], with 0.7 ± 0.2 µM; and `CN1CC(=O)N2C(CN(Cc3cccc(F)c3)C(=O)[C@@H]2Cc2ccc(O)cc2)N1C(=O)NCc1ccccc1` (stereo partly drawn) [Compound 9], with 6.7 µM; and `C=CCN1CC(=O)N2[C@@H](Cc3ccc(O)cc3)C(=O)N(Cc3ccc(F)cc3F)C[C@@H]2N1C(=O)NCc1ccc(Cl)c(Cl)c1` [Compound 179], with 2.3 ± 0.2 µM.
The same measure, in the same setting: then `CN(C)c1ccccc1CN1C[C@H]2N(C(=O)CN(C)N2C(=O)NCc2ccccc2)[C@@H](Cc2ccc(O)cc2)C1=O` [Compound 43], with 5.2 µM.
As for `C=CCN1CC(=O)N2[C@@H](Cc3ccc(O)cc3)C(=O)N(Cc3ccc(F)cc3F)[C@@H](C)[C@@H]2N1C(=O)NCc1ccccc1` [Compound 177], the IC50 worked out at 5.3 ± 0.4 µM.
Still for that read-out and setting: then `Cc1ccc(CC2C(=O)N(CCc3ccccc3)CC3N2C(=O)CN(C)N3C(=O)Nc2ccc(C(F)(F)F)cc2)cc1` (stereo not drawn) [Compound 2], with 12.6 µM; and `C=CCN1CC(=O)N2[C@@H](Cc3ccc(O)cc3)C(=O)N(Cc3ccc(Cl)c4cccnc34)C[C@@H]2N1C(=O)NCc1ccccc1` [Compound 137], with 0.6 ± 0.1 µM; and `CN(C1CC1)C1CC=CC=C1CN1C[C@H]2N(C(=O)CN(C)N2C(=O)NCc2ccccc2)[C@@H](Cc2ccc(O)cc2)C1=O` (stereo partly drawn) [Compound 53], with 9 ± 1.5 µM.
Same read-out and setting: for `C=CCN1CC(=O)N2[C@@H](Cc3ccc(O)cc3)C(=O)N(Cc3ccc(F)cc3F)C[C@@H]2N1C(=O)NCc1ccc(F)cc1` [Compound 175] the value was 5.4 ± 0.5 µM.
As to `CN(C)Cc1cccc(CN2C[C@H]3N(C(=O)CN(C)N3C(=O)NCc3ccccc3)[C@@H](Cc3ccc(O)cc3)C2=O)c1` [Compound 116], the IC50 stood at 8 ± 0.7 µM.
The same measure, in the same setting: for `C=CCN1CC(=O)N2[C@@H](Cc3ccc(O)cc3)C(=O)N(Cc3ccc(OC)cc3)C[C@@H]2N1C(=O)NCc1ccc(Cl)c(Cl)c1` [Compound 215] the value was 18 ± 5.1 µM.
On the same count and under the same terms, then `C=CCN1CC(=O)N2[C@@H](Cc3ccc(O)cc3)C(=O)N(Cc3ccc(Cl)c(N(C)C)c3)C[C@@H]2N1C(=O)NCc1ccccc1` [Compound 129], with 2.4 ± 0.5 µM; and `CN(C)c1cccc(F)c1CN1C[C@H]2N(C(=O)CN(C)N2C(=O)NCc2ccccc2)[C@@H](Cc2ccc(O)cc2)C1=O` [Compound 42], with 18.2 µM.
Still for that read-out and setting: then `Cc1ccc([C@@H](C)N2C[C@H]3N(C(=O)CN(C)N3C(=O)NCc3ccccc3)[C@@H](Cc3ccc(O)cc3)C2=O)cc1` [Compound 41], with 13.6 µM; and `CN1CC(=O)N2C(CN(Cc3ccccc3Cl)C(=O)[C@@H]2Cc2ccc(O)cc2)N1C(=O)NCc1ccccc1` (stereo partly drawn) [Compound 17], with 14.3 µM.
For the compound `C#CCn1cc2c(CN3C[C@H]4N(C(=O)CN(C)N4C(=O)NCc4ccccc4)[C@@H](Cc4ccc(O)cc4)C3=O)cccc2n1` [Compound 96], the IC50 amounted to 8.1 ± 0.9 µM.
On the same count and under the same terms, for `[2H]C([2H])(c1ccc(O)cc1)[C@H]1C(=O)N(Cc2cccc3ccccc23)C[C@H]2N1C(=O)CN(C)N2C(=O)NCc1ccccc1` [Compound 165] the value was 3.9 ± 0.3 µM.
On the same count and under the same terms, for `CN1CC(=O)N2[C@@H](Cc3ccc(O)cc3)C(=O)N(Cc3cccc(N4CCCC4)c3)C[C@@H]2N1C(=O)NCc1ccccc1` [Compound 63] the value was 4.1 ± 0.5 µM; for `C=CCN1CC(=O)N2[C@@H](Cc3ccc(O)cc3)C(=O)N(Cc3cccc4sc(C(=O)OCC)nc34)C[C@@H]2N1C(=O)NCc1ccccc1` [Compound 224], 5.4 ± 1 µM.
Same read-out and setting: then `C#CCN1CC(=O)N2[C@@H](Cc3ccc(O)cc3)C(=O)N(Cc3ccc(Cl)c4cccnc34)C[C@@H]2N1C(=O)NCc1ccccc1` [Compound 138], with 1 ± 0.2 µM; and `CN1CC(=O)N2[C@@H](Cc3ccc(O)cc3)C(=O)N(Cc3cccc4c3cnn4Cc3ccccc3N)C[C@@H]2N1C(=O)NCc1ccccc1` [Compound 88], with 2.2 ± 0.2 µM; and `C#CCN1CC(=O)N2[C@@H](Cc3ccc(O)cc3)C(=O)N(Cc3ccc(C)c(N4CCOCC4)c3)C[C@@H]2N1C(=O)NCc1ccccc1` [Compound 134], with 4.5 ± 0.9 µM.
On to `CCOP(=O)(CC(=O)Nc1ccc(C[C@H]2C(=O)N(Cc3cccc4ccccc34)C[C@H]3N2C(=O)CN(C)N3C(=O)NCc2ccccc2)cc1)OCC` [Compound 84], for which the IC50 worked out at 46.7 ± 6.7 µM.
For `CC(C)N(C)c1cccc([C@@H](C)N2C[C@H]3N(C(=O)CN(C)N3C(=O)NCc3ccccc3)[C@@H](Cc3ccc(O)cc3)C2=O)c1` [Compound 67], the IC50 was found to be 6.8 µM.
On the same count and under the same terms, for `C[C@@H](c1ccc(Cl)c2cccnc12)N1CC2N(C(=O)CN(C)N2C(=O)NCc2ccccc2)[C@@H](Cc2ccc(O)cc2)C1=O` (stereo partly drawn) [Compound 196] the value was 27.4 ± 2.8 µM; for `CN1CC(=O)N2[C@@H](Cc3ccc(O)cc3)C(=O)N(Cc3ccc4ccccc4n3)C[C@@H]2N1C(=O)NCc1ccccc1` [Compound 39], 9.7 µM.

The values above are taken from US7671054B1, “Reverse-turn mimetics and method relating thereto” (Choongwae Pharma Corporation, priority 2001, dated 2010).
